The text below walks through data of PubChem BioAssay AID434932 (The Scripps Research Institute Molecular Screening Center, 2010).

Active and inactive are the calls of the source.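 Rule for the calls: active = STAT1 activated, EC50 at most 10 µM; inactive = Over 10 µM EC50.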 Some results are limits rather than exact numbers.

In this test the test system is NIH 3T3 STAT1-luciferase reporter, IFN-gamma, luminescence. Briefly: STAT1 reporter activators in fibroblasts, late-stage follow-up, cell-based, luminescence, NIH 3T3, dose response, powders (AID 434932).
One may read the EC50 as the midpoint of the concentration-response curve. Turning to `CCN(CC)c1ccc2cc(C(=O)Nc3ccccn3)c(=O)oc2c1`, the EC50 is 10 µM (inactive).
`COc1ccc(-c2cc(C)nc3c(-c4ccccc4)cnn23)cc1`: the EC50 was 4.04 µM.
As for `CCOC(=O)/C(C#N)=C/c1cc(C)n(-c2ccccc2)c1C`, the EC50 is 3.31 µM.
In the case of `Cc1cc(-c2ccc(F)cc2)n2ncc(-c3ccccc3)c2n1` it was 0.0643 µM; in that of `COc1ccc(-c2csc(N3C(=O)CNC3=S)n2)cc1`, 2.01 µM; in that of `O=C(/C=C/Nc1ccccc1F)c1ccc(Br)cc1`, > 55.7 µM (inactive).
Consider `CC(=O)NC(=S)Nc1sc2c(c1C#N)CCCCC2`, for which the EC50 was > 55.7 µM (inactive).
`Cc1nnc(SCC(=O)Nc2ccc(-c3nc4ccccc4s3)cc2)s1`: the EC50 was > 55.7 µM (inactive).
Turning to `COc1ccc2[nH]c3c(c2c1)CCn1c-3nc2ccccc2c1=O`, the EC50 was under 0.00283 µM.
Take `O=C(Nc1nc2ccccc2s1)c1cc2ccccc2s1`: the EC50 was 0.835 µM.
